Assays:
p53 = p53 transcriptional activity (Cignal p53 luciferase reporter) in UMSCC47 cells; assay type: cell-based, human; details: UMSCC47 (HPV-positive), 10 μM, 24 hours, vs control (vehicle)
Source text: (§1) FIG. 5A is an schematic illustration showing that CH1 has two distinct target sites. HIF1-α/p300 structures were used as guides to design helix mimetics that target site A and site B on the CH1 domain of p300. […] CH1iA (SEQ ID NO: 7) and CH1iB (SEQ ID NO: 8) were designed to mimic two helices from the C-terminal domain of HIF-1α. The peptides were locked into the helical conformation by the hydrogen bond surrogate method. FIG. 5C is a graph of p53 activity. UMSCC47 (left) and UMSCC74A (right) cells were co-transfected with a p53 Firefly luciferase reporter plasmid and a control Renilla luciferase plasmid. After 24 hours, cells were treated with control (vehicle), CH1iA (10 μM), or CH1iB (10 μM) for 24 hours. Firefly luciferase activity was normalized to Renilla luciferase activity to control for transfection efficiency. Data is normalized to control and presented as mean±SEM. *P<0.05, n=3. FIG. 5D is a western blot showing total and acetylated p53 levels. UMSCC47 (left) and UMSCC74A (right) cells were treated with control (vehicle), CH1iA (10 μM), or CH1iB (10 μM) for 24 hours. Cell lysates were immunoblotted with anti-p53 or anti-acetylated[K382]-p53 antibody. FIG. 5E is a pair of graphs of p300, p53, p21, miR-34a, and miR-200c expression. UMSCC47 (top panel) and UMSCC74A (bottom panel) cells were treated with control (vehicle), CH1iA (10 μM), or CH1iB (10 μM) for 24 hours. mRNA expression was determined using qPCR with validated TaqMan assays. Data is normalized to control cells and presented as mean±SEM. *P<0.01, control vs. CH1iB, n=3. FIG. 5F is a western blot showing HPV16 E6-p300 association. UMSCC47 cells were treated with control (vehicle), CH1iA (10 μM), or CH1iB (10 μM) for 24 hours. Cell lysates were extracted, immunoprecipitated with anti-p300 antibody, and immunoblotted with anti-E6 antibody. Cell lysates were immunoblotted with anti-E6 or anti-p300 antibody for input control. FIG. 5G is a set of graphs of cell proliferation. UMSCC47 (top left panel), UMSCC74A (top right panel), and IMR90 (human normal fibroblasts) (bottom panel) cells were treated with control (vehicle), CH1iA (10 μM), CH1iB (10 μM), cis-platinum (10 μM), CH1iA (10 μM) and cis-platinum (10 μM), or CH1iB (10 μM) and cis-platinum (10 μM) for 24, 48, or 72 hours. Data is normalized to Day 0 and presented as mean±SEM. *P<0.01, control vs. CH1iB or cis-platinum, **P<0.01 CH1iB or cis-platinum vs. CH1iB and cis-platinum, n=6.
FIG. 6A is a western blot showing total and acetylated p53 levels. […] UMSCC47 cells were treated with control (vehicle), CH1iB (10 μM), cis-platinum (10 μM), or CH1iB (10 μM) and cis-platinum (10 μM) for 24 hours. mRNA expression was determined using qPCR with validated TaqMan assays. […]

UMSCC47 cells = experiment: Cell proliferation (MTT) in UMSCC47 cells; assay type: cell-based, human
Source text: as §1
FIG. 7A is a graph of p53 transcriptional activity. UMSCC47 cells were co-transfected with a p53 Firefly luciferase reporter plasmid and a control Renilla luciferase plasmid. After 24 hours, cells were treated with control (vehicle) or CH1iB-mut (10 μM) for 24 hours. Firefly luciferase activity was normalized to Renilla luciferase activity to control for transfection efficiency. Data is presented as mean±SEM. *P<0.05, n=5. FIG. 7B is a graph of cell proliferation. UMSCC47 cells were treated with control (vehicle), CH1iB-mut (10 μM), cis-platinum (10 μM), or CH1iB-mut (10 μM) and cis-platinum (10 μM) for 24 or 48 hours. Data is normalized to Day 0 and presented as mean±SEM. *P<0.01, control or CH1iB-mut vs. cis-platinum or cis-platinum+CH1iB-mut, n=6.
Cell proliferation was assessed using the MTT reagent (Roche Molecular Biochemicals, Nutley, N.J.) to detect metabolic active cells. Absorbance was measured at 570 nm in the Spectra Max 190 ELISA reader (Molecular Devices, Sunnyvale, Calif.) after overnight incubation. […]

XELA*RAADQ-NH2 (ELXRAADQ; HBS: 4-pentenoic acid, N-allylalanine; C-terminal amide; CH1iB-MUT)
p53 activity increase (p53): 14% | effect on anti-proliferative efficacy of cis-platinum (combination) (UMSCC47 cells; UMSCC47, 10 μM with cis-platinum 10 μM): no effect | cell proliferation, single-agent (UMSCC47 cells; UMSCC47, 10 μM, 24-72 hours): no effect

From patent US9605026B2, “Hydrogen-bond surrogate peptides and peptidomimetics for p53 reactivation” (New York University, priority 2013, dated 2017)
